Results: US11981680B2, “Substituted thienopyrroles as PAD4 inhibitors” (BRISTOL-MYERS SQUIBB COMPANY, priority 2018, dated 2024)

Target: human PAD4 (hPAD4) (Homo sapiens (Human), UniProt Q9UM07)
Assay: RFMS Human PAD4 Functional Assay
Assay type: biochemical
Details: rapid-fire mass spectrum (RFMS) assay; 5 nM hPAD4 enzyme, 250 μM BAEE, 30 min preincubation at 37° C.

Chain of human PAD4 (hPAD4) (Q9UM07 whole entry): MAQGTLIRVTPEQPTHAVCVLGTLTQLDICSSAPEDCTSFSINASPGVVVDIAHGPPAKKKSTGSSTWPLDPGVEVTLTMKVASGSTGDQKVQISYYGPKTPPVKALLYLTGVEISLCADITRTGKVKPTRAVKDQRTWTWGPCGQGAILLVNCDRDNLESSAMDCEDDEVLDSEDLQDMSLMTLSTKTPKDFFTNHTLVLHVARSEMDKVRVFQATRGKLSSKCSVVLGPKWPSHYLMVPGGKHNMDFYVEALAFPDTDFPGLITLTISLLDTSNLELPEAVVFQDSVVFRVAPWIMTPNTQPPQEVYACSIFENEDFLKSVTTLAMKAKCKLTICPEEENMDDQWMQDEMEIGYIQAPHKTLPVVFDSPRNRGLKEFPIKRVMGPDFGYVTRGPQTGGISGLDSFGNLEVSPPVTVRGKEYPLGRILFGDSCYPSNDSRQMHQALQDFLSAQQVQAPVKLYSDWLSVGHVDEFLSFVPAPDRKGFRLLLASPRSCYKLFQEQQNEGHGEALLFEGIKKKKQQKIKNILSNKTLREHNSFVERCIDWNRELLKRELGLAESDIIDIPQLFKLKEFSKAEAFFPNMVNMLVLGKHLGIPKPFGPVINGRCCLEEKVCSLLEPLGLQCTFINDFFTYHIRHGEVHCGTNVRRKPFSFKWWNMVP

Row | IC50 | Structure (SMILES)
1 | 29 nM | COc1cc(C(=O)N2C[C@H]3CC[C@@H]2[C@@H]3N)cc2nc(-c3cc4scc(-c5cnn(C6CCOCC6)c5)c4n3CC3CC3)n(C)c12 [Example 48, ((1R,4R,7R)-7-amino-2-azabicyclo[2.2.1]heptan-2-yl)(2-(4-(cyclopropylmethyl)-3-(1-(tetrahydro-2H-pyran-4-yl)-1H-pyrazol-4-yl)-4H-thieno[3,2-b]pyrrol-5-yl)-7-methoxy-1-methyl-1H-benzo[d]imidazol-5-yl)methanone]
2 | 62 nM | COc1cc(C(=O)N2C[C@H]3CC[C@@H]2[C@@H]3N)cc2nc(-c3cc4scc(Nc5ccncc5)c4n3CC3CC3)n(C)c12 [Example 49, ((1R,4R,7R)-7-Amino-2-azabicyclo[2.2.1]heptan-2-yl)(2-(4-(cyclopropylmethyl)-3-(pyridin-4-ylamino)-4H-thieno[3,2-b]pyrrol-5-yl)-7-methoxy-1-methyl-1H-benzo[d]imidazol-5-yl)methanone]
